According to patent US9963703B2, “Compositions and methods for treating pancreatic cancer” (Autotelic LLC, priority 2016, dated 2018):
In the oligonucleotide strings, read from the 5' end, every base follows the letter of its sugar. An asterisk marks phosphorothioate; unmarked linkages are phosphodiester. Other units and linkages are bracketed, terminal groups are in braces. A string of capitals states the bases alone. d = 2'-deoxy (DNA)

Experiments:
[1] = system: TGFβ2; assay: TGFβ2 secretion/expression in WiDr colon cancer cells; assay type: cell-based
From the text: (§1) The aim of the study was to determine the effect of AP12009 (trabedersen) treatment in combination with 5-Fluorouracil (5-FU) on TGFβ2 secretion and on cellular proliferation of HUP-T3 pancreatic cancer cells and WiDr colon cancer cells in vitro.

[2] = system: A-172 glioma cells; assay: Proliferation of A-172 glioma cells; assay type: cell-based
Description: (§2) A-172 glioma cells were treated with a combination of AP12009 (trabedersen) 0 to 10 μM) and different concentrations of TMZ (temozolomide) for 7 days (treatment schedule 2*2/1*3 d).
(§3) In summary there is no clear beneficial effect in combining AP12009 with TMZ in A-172 cells.

[3] = Acute single dose toxicity in rats; assay type: in vivo
Description: (§4) The clinical starting dose for the 7-days-on and 7-days-off schedule was based on the Lowest-Observed-Adverse-Effect-Level (LOAEL) devoid of severe toxicity in Cynomolgus monkeys as the most relevant species. This LOAEL of 4 mg/kg body weight (b.w.)/day is equivalent to approximately 1.3 mg/kg b.w./day or 48 mg/m^2/day on a body surface area basis in human adults. These numbers were rounded down and the safe starting dose was defined at 40 mg/m^2/day, equivalent to approximately 1 mg/kg b.w./day in humans. An alternative approach would have been based on the lowest lethal dose (LLD) of 300 mg/kg b.w. obtained in the acute single dose toxicity study in mice (in rats it was determined at 1000 mg/kg), at which 1 of 10 mice died (LLD10). According to the standard method, 10% of this dose (30 mg/kg) on a body surface area basis would then be defined as the clinical starting dose resulting in 90 mg/m^2/day. In the end, the lower of the two alternatives was chosen as starting dose.

[4] = Preclinical toxicology, LOAEL in Cynomolgus monkeys; assay type: in vivo
Description: as §4

[5] = Acute single dose toxicity study in mice; assay type: in vivo; conditions: 1 of 10 mice died (LLD10)
Description: as §4

[6] = system: A-172 glioma cells; assay: Migration of A-172 glioma cells; assay type: cell-based
Description: as §2

[7] = system: pancreatic cancer; assay: Phase I/II study P-001, efficacy (PFS, OS) in pancreatic cancer patients; assay type: in vivo, human
Description: At screening, up to 10 “measurable lesions” (i.e. lesions that could be accurately measured in at least 1 dimension with a longest diameter of 2 cm) representative of all involved organs were identified as “target lesions” for tumor response assessment and were measured and documented. All other lesions were defined and recorded as “non-target lesions”. Tumor response was determined by the local investigator every 8 weeks after start of the first trabedersen cycle during follow-up visits, irrespective of whether the patient was still on treatment or off treatment. The tumor assessment was based on Response Evaluation Criteria in Solid Tumors (RECIST 1.0) criteria. The categories of overall tumor response are as follows: (1) Complete response (CR): disappearance of all target and non-target lesions and normalization of tumor marker level; (2) Partial response (PR): at least 30% decrease in the sum of the longest diameter (LD) of target lesions (baseline sum LD as reference) and/or persistence of one or more non-target lesions and/or maintenance of tumor marker level above normal limits; (3) Stable disease (SD): less than 30% decrease or less than 20% increase in sum LD target lesions (smallest sum LD since treatment start as reference) and/or persistence of one or more non-target lesions and/or maintenance of tumor marker level above normal limits; (4) Progressive disease (PD) At least 20% increase in sum LD target lesions (smallest sum LD since treatment start as reference) and/or unequivocal progression of existing nontarget lesions and/or appearance of one or more new lesions; and (5) Unknown.
Progression-free survival (PFS) was defined as the time from Day 1 until tumor progression or death from any cause. The date of progression was either the date of the image showing progression or the date of treatment termination in case one of the reasons for treatment termination was tumor progression (referring to clinical progression as assessed by the Investigator), whichever occurred first.
Overall survival (OS) was defined as the time from Day 1 until death from any cause. All patients were followed for survival during the follow-up assessments every 8 weeks. The survival status was documented at the Final Visit (Day 29) and during the 8-weekly post-treatment follow-up assessments, and was continued to be collected after study closure until database lock or until the patient was lost to follow-up.
There were […] line patients and 11 third line and beyond on the 4 days on and 10 days off regimen. The PFS/OS (progression free survival/overall survival ratio) of these second line patients in months were: 1.87/5.60 (N=6), 1.87/9.93 (N=11) and 2.72/11.80 (N=5) at increasing mean dose of 140 mg/m^2/day, 167 mg/m^2/day, and 196 mg/m^2/day, respectively. The OS of 9.93 and 11.80 are higher than the highest reported in the 65 trials reported in the literature during 1997-2015 (range=2.50-9.20/median=5.50). The corresponding PFS values were in line with reported literature (range=0.00-7.65/median=2.43). […] Trabedersen itself was not having an impact on the tumor (FIG. 1).

[8] = system: HUP-T3 pancreatic cancer cells; assay: Cellular proliferation of HUP-T3 pancreatic cancer cells in vitro
From the text: as §1

[9] = system: TGFβ2; assay: TGFβ2 secretion/expression in HUP-T3 pancreatic cancer cells; assay type: cell-based
From the text: as §1

[10] = system: WiDr colon cancer cells; assay: Cellular proliferation of WiDr colon cancer cells in vitro; assay type: cell-based
From the text: as §1

[11] = system: TGFβ2; assay: TGFβ2 secretion in A-172 glioma cells; assay type: cell-based
Description: as §2, §3

[12] = system: A-172 glioma cells; assay: A-172 glioma cells, alternative AP12009/TMZ treatment schedules (readout not stated); assay type: cell-based
Description: as §2

[13] = AP12009 in combination with TMZ
[14] = converted from Cynomolgus LOAEL
[15] = FIG. 1, trabedersen as second line treatment
[16] = second line pancreatic cancer patients, 4 days on/10 days off, mean dose 140 mg/m^2/day (N=6)
[17] = second line pancreatic cancer patients, 4 days on/10 days off, mean dose 167 mg/m^2/day (N=11)
[18] = second line pancreatic cancer patients, 4 days on/10 days off, mean dose 196 mg/m^2/day (N=5)

Substance: trabedersen: TGF-beta2 specific phosphorothioate antisense oligodeoxynucleotide with the sequence 5′-CGGCATGTCTATTTTGTA-3′ (SEQ ID No: 1) (antisense dC*dG*dG*dC*dA*dT*dG*dT*dC*dT*dA*dT*dT*dT*dT*dG*dT*dA)
- TGFβ2 expression, % of untreated control ([1]; 10 μM AP12009): 54%
- combination effect on TGFβ2 expression ([1]; 10 μM AP12009 and 5-FU): sub-additive effects
- combination effect on cell proliferation [2, 13]: no reproducible beneficial effect
- effect on cell proliferation ([2]; monotherapy, 7 days): slightly reduced
- lowest lethal dose (LLD) [3]: 1000 mg/kg
- Lowest-Observed-Adverse-Effect-Level (LOAEL) devoid of severe toxicity ([4]; Cynomolgus monkeys): 4 mg/kg body weight (b.w.)/day
- LOAEL, equivalent in human adults [4, 14]: approximately 1.3 mg/kg b.w./day
- LOAEL, equivalent in human adults on a body surface area basis [4, 14]: ~48 mg/m^2/day
- lowest lethal dose (LLD) [5]: 300 mg/kg b.w.
- effect on migration compared with untreated control ([6]; AP12009 10 μM monotherapy): did not affect migration
- effect of AP12009 on TMZ effect on migration [6, 13]: did not influence the effects of TMZ on migration
- OS ([7]; 4/10 cohort treated with subsequent chemotherapies, p=0.0023, Log-rank): 14.7 mos
- OS ([7]; 4/10 cohort without subsequent chemotherapies): 2.93 mos
- OS compared to reported median OS [7, 15]: higher than reported in the literature
- PFS compared to reported median PFS [7, 15]: not significantly different
- effect on the tumor, as indicated by overall survival rate ([7]; FIG. 3, trabedersen alone): does not have a significant effect on the tumor
- effect on overall survival rate ([7]; FIG. 3, trabedersen therapy followed by chemotherapy): significant increase in the overall survival rate
- OS ([7]; chemotherapy on 2nd line followed by trabedersen 4/10 regimen as third line (N=9), p=0.046 vs trabedersen first): 2.80 mos
- OS [7, 16]: 5.60 months
- PFS [7, 16]: 1.87 months
- OS [7, 17]: 9.93 months
- PFS [7, 17]: 1.87 months
- OS [7, 18]: 11.80 months
- PFS [7, 18]: 2.72 months
- OS ([7]; trabedersen on 2nd line followed with subsequent therapies (N=11), p=0.046, Log-rank): 9.93 mos
- effect on proliferation of adding AP12009 to 5-FU compared with 5-FU alone [8]: did not result in any additional inhibition of proliferation
- cell proliferation, % of untreated control ([8]; HUP-T3, 10 μM AP12009 monotherapy): 53%
- TGFβ2 expression, % of untreated control ([9]; 10 μM AP12009 monotherapy): 42%
- combination effect on inhibition of TGFβ2 expression ([9]; 5-FU added to 10 μM AP12009): sub-additive or even antagonistic effects
- cell proliferation, % of untreated control ([10]; 10 μM AP12009): 76%
- combination effect on cell proliferation ([10]; 10 μM AP12009 and 5-FU): sub-additive effects
- combination effect on inhibition of TGFβ2 secretion [11, 13]: additive effect
- effect on TGFβ2 ([11]; monotherapy, 7 days): strongly reduced
- benefit of single TMZ treatment combined with 7 day AP12009 treatment ([12]; TMZ day 0 for one day, AP12009 7 days (2*1/1*2/1*3 d)): did not show any benefit or disadvantage
- benefit of pre-treatment with AP12009 ([12]; pre-treatment (1*2/1*3 d) with AP12009 before combined AP12009 and TMZ (2*2/1*3 d)): did not show any benefit
